Conditions: Liquid; for mass density: Vibrating tube method; for viscosity: Vibrating wire viscometry

Cc1ccccc1 [toluene]
Conditions	mass density, 298.15 K [kg/m3]	mass density, 323.15 K [kg/m3]	viscosity, 298.15 K [mPa·s]	viscosity, 323.15 K [mPa·s]
100 kPa	862.5	–	0.555	–
120 kPa	–	840.467	–	0.425
2300 kPa	864.389	–	0.569	–
3340 kPa	–	843.459	–	0.431
4400 kPa	865.888	–	0.58	–
6340 kPa	–	846.144	–	0.448
7430 kPa	868.038	–	0.593	–
9600 kPa	–	848.793	–	0.461
10400 kPa	870.54	–	0.597	–
12470 kPa	871.736	–	0.613	–
12750 kPa	–	851.586	–	0.464
14490 kPa	873.496	–	0.617	–
14770 kPa	–	853.276	–	0.466

CCOC(=O)CCCCC(=O)OCC [diethyl hexanedioate]
Conditions	mass density [kg/m3]	viscosity [mPa·s]
303.15 K, 100 kPa	998.842	2.786
303.15 K, 4520 kPa	1001.81	2.909
303.15 K, 9610 kPa	1005.24	3.061
303.15 K, 14700 kPa	1008.51	3.226
303.15 K, 19790 kPa	1012.52	3.343
313.15 K, 100 kPa	989.86	2.257
313.15 K, 4520 kPa	993.535	2.335
313.15 K, 9630 kPa	996.693	2.472
313.15 K, 14750 kPa	1000.42	2.589
313.15 K, 19890 kPa	1003.55	2.726
323.15 K, 100 kPa	981.395	1.846
323.15 K, 4520 kPa	984.72	1.932
323.15 K, 9600 kPa	988.74	2.021
323.15 K, 14690 kPa	992.273	2.126
323.15 K, 19710 kPa	995.581	2.23
333.15 K, 100 kPa	971.597	1.58
333.15 K, 4520 kPa	975.516	1.642
333.15 K, 9630 kPa	979.685	1.716
333.15 K, 14710 kPa	983.483	1.802
333.15 K, 19710 kPa	987.107	1.886
343.15 K, 100 kPa	962.622	1.35
343.15 K, 4510 kPa	966.544	1.407
343.15 K, 9600 kPa	970.932	1.471
343.15 K, 14700 kPa	975.031	1.542
343.15 K, 19700 kPa	978.932	1.608
353.15 K, 100 kPa	953.224	1.179
353.15 K, 4520 kPa	957.353	1.227
353.15 K, 9620 kPa	962.118	1.28
353.15 K, 14710 kPa	966.479	1.338
353.15 K, 19680 kPa	970.392	1.402
363.15 K, 100 kPa	943.203	1.041
363.15 K, 4520 kPa	948.203	1.078
363.15 K, 9610 kPa	953.106	1.129
363.15 K, 14700 kPa	957.919	1.174
363.15 K, 19710 kPa	962.125	1.226
373.15 K, 100 kPa	934.753	0.914
373.15 K, 4520 kPa	939.138	0.956
373.15 K, 9620 kPa	944.359	1
373.15 K, 14680 kPa	948.986	1.046
373.15 K, 19910 kPa	953.741	1.096
